Consider ten compounds from patent US20090181986A1, “SUBSTITUTED HETEROCYCLIC COMPOUNDS” (priority 2007, published 2009).

Where two headings read alike, the source gives them in different places.

Data set [1] deals with T1, wild-type human cardiac sodium channel, hNav1.5 (Homo sapiens, UniProt Q14524). The data set can be described thus: Late INa screening assay (PatchXpress whole cell patch clamp, late current generated with Tefluthrin or ATX II). Format: cell-based. The settings on record: test compound at 10 μM. The procedure:
(§1) The late sodium current (Late INa) and peak sodium current (Peak INa) assays are performed on an automated electrophysiology platform, PatchXpress 7000A (MDS Analytical Technologies, Sunnyvale, Calif.), which uses the whole cell patch clump technique to measure currents through the cell membrane of up to 16 cells at a time. The assay uses an HEK293 (human embryonic kidney) cell line heterologously expressing the wild-type human cardiac sodium channel, hNav1.5, purchased from Millipore (Billerica, Mass.). No beta subunits were coexpressed with the Na channel alpha subunit. […] Experiments are carried out at 24-27° C.
(§2) For both the Late INa and Peak INa assays, series resistance compensation is set to 50% and whole-cell compensation is performed automatically. […] Currents through open sodium channels are automatically recorded and stored in the DataXpress2 database (MDS Analytical Technologies, Sunnyvale, Calif.). Analysis is performed using DataXpress2 analysis software and data are compiled in Excel.
Compound stocks are routinely made in glass vials to 10 mM in dimethyl sulfoxide (DMSO). In some cases, when compounds are not soluble in DMSO, they are made in 100% ethanol. Stocks are sonicated as necessary. The extracellular solution for screening Late INa is composed of: 140 mM NaCl, 4 mM KCl, 1.8 mM CaCl2, 0.75 mM MgCl2, and 5 mM HEPES with pH adjusted to 7.4 using NaOH. The extracellular solution for screening Peak INa is composed of: 20 mM NaCl, 120 mM N-methyl-D glucamine, 4 mM KCl, 1.8 mM CaCl2, 0.75 mM MgCl2, and 5 mM HEPES with pH adjusted to 7.4 using HCl. The intracellular solution used to perfuse the inside of the cells for both the Late INa and Peak INa assays contains: 120 mM CsF, […], 5 mM EGTA, 5 mM HEPES and pH adjusted to 7.4 with CsOH. […] The ONa extracellular solution used at the end of each experiment for the Late INa and Peak INa assays to measure baseline current contains: 140 mM N-methyl-D-glucamine; 4 mM KCl; 1.8 mM CaCl2; 0.75 mM MgCl2; 5 mM HEPES and pH was adjusted to 7.4 with HCl.
For the Late INa assay, sodium channels are activated every 10 seconds (0.1 Hz) by depolarizing the cell membrane to −20 mV for 250 milliseconds (ms) from a holding potential of −120 mV.
All compounds are tested to determine their activity in blocking the late sodium current. Late INa current is generated by adding 10 μM Tefluthrin (pyrethroid) to the extracellular solution while recording Na currents. […] For some experiments, 50 nM ATX II (sea anemone toxin), another late INa activator, was used to generate the late component. […] Baseline current in the absence of Na^+ ions is measured at the end of each experiment (after two additions of 0 Na solution—see above) and is used to calculate the percent block by compound.
(Patch clamp records ionic current or voltage across a cell membrane.)

Data set [2] relates to L-type calcium channel. In words: L-type calcium channel activity well-plate assay (IMR-32 cells, Ca-4 dye, FlexStation). The format is cell-based, human. Summed up:
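IMR-32 human neuroblastoma cells seeded overnight at 200,000 cells/well, loaded 1 h at 37° with Ca-4 dye in HBSS/20 mM HEPES pH 7.4 with 2 mM probenecid.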

Data set [3] concerns the target T1, wild-type human cardiac sodium channel, hNav1.5. In words: Peak INa screening assay (tonic block and use-dependent block). Conditions: test compound at 10 μM. Format: cell-based. On the procedure:
as §1, §2
Compound stocks are routinely made in glass vials to 10 mM in dimethyl sulfoxide (DMSO). In some cases, when compounds are not soluble in DMSO, they are made in 100% ethanol. Stocks are sonicated as necessary. The extracellular solution for screening Late INa is composed of: 140 mM NaCl, 4 mM KCl, 1.8 mM CaCl2, 0.75 mM MgCl2, and 5 mM HEPES with pH adjusted to 7.4 using NaOH. The extracellular solution for screening Peak INa is composed of: 20 mM NaCl, 120 mM N-methyl-D glucamine, 4 mM KCl, 1.8 mM CaCl2, 0.75 mM MgCl2, and 5 mM HEPES with pH adjusted to 7.4 using HCl. The intracellular solution used to perfuse the inside of the cells for both the Late INa and Peak INa assays contains: 120 mM CsF, […], 5 mM EGTA, 5 mM HEPES and pH adjusted to 7.4 with CsOH. Compounds are diluted in extracellular solution to […] in glass vials and then transferred to glass well plates before robotic addition to the cells. The ONa extracellular solution used at the end of each experiment for the Late INa and Peak INa assays to measure baseline current contains: 140 mM N-methyl-D-glucamine; 4 mM KCl; 1.8 mM CaCl2; 0.75 mM MgCl2; 5 mM HEPES and pH was adjusted to 7.4 with HCl.
Compounds were also evaluated for their effect in several other assays, including their effect on Peak INa. In some cases, the effect on Peak INa was measured using data from the Late INa assay. […] Since the peak INa can be very large, introducing artifacts in the recording, the concentration of Na^+ in the bath is reduced to 20 mM and a nonpermeant cation is added to compensate for the Na^+ that was omitted from the standard extracellular solution (see above). The peak INa assay uses a holding potential of −100 mV and a 20 ms test pulse to 0 mV to activate the channel. As in the Late INa assay, stepping the voltage to 0 mV causes a rapid increase in negative Na current through hNav1.5 that inactivates within a few ms. No late INa activator is added for the peak assay.
For the separate peak INa assay, both tonic (TB) block and use-dependent (UDB) block of peak inward sodium current by 10 μM compound are determined. TB is block of the channel in the resting state, before the channel opens. TB is simulated in this assay by stimulating the channel to open at a low frequency (0.1 Hz). This is done in order to measure the control current amplitude and monitor current rundown, enabling correction for rundown in the calculation of percent block for TB.

Data set [4] deals with hERG potassium channel (Homo sapiens, UniProt Q12809). The data set can be described thus: hERG screening assay (PatchXpress patch clamp, CHO cells).
Data set [5] deals with T2, human cardiac L-type calcium channels (hCav1.2, coexpressed with the beta 2 subunit) (Homo sapiens, UniProt Q13936).
T2 construct: expressed in transfected cells
T2 sequence (Q13936 whole entry): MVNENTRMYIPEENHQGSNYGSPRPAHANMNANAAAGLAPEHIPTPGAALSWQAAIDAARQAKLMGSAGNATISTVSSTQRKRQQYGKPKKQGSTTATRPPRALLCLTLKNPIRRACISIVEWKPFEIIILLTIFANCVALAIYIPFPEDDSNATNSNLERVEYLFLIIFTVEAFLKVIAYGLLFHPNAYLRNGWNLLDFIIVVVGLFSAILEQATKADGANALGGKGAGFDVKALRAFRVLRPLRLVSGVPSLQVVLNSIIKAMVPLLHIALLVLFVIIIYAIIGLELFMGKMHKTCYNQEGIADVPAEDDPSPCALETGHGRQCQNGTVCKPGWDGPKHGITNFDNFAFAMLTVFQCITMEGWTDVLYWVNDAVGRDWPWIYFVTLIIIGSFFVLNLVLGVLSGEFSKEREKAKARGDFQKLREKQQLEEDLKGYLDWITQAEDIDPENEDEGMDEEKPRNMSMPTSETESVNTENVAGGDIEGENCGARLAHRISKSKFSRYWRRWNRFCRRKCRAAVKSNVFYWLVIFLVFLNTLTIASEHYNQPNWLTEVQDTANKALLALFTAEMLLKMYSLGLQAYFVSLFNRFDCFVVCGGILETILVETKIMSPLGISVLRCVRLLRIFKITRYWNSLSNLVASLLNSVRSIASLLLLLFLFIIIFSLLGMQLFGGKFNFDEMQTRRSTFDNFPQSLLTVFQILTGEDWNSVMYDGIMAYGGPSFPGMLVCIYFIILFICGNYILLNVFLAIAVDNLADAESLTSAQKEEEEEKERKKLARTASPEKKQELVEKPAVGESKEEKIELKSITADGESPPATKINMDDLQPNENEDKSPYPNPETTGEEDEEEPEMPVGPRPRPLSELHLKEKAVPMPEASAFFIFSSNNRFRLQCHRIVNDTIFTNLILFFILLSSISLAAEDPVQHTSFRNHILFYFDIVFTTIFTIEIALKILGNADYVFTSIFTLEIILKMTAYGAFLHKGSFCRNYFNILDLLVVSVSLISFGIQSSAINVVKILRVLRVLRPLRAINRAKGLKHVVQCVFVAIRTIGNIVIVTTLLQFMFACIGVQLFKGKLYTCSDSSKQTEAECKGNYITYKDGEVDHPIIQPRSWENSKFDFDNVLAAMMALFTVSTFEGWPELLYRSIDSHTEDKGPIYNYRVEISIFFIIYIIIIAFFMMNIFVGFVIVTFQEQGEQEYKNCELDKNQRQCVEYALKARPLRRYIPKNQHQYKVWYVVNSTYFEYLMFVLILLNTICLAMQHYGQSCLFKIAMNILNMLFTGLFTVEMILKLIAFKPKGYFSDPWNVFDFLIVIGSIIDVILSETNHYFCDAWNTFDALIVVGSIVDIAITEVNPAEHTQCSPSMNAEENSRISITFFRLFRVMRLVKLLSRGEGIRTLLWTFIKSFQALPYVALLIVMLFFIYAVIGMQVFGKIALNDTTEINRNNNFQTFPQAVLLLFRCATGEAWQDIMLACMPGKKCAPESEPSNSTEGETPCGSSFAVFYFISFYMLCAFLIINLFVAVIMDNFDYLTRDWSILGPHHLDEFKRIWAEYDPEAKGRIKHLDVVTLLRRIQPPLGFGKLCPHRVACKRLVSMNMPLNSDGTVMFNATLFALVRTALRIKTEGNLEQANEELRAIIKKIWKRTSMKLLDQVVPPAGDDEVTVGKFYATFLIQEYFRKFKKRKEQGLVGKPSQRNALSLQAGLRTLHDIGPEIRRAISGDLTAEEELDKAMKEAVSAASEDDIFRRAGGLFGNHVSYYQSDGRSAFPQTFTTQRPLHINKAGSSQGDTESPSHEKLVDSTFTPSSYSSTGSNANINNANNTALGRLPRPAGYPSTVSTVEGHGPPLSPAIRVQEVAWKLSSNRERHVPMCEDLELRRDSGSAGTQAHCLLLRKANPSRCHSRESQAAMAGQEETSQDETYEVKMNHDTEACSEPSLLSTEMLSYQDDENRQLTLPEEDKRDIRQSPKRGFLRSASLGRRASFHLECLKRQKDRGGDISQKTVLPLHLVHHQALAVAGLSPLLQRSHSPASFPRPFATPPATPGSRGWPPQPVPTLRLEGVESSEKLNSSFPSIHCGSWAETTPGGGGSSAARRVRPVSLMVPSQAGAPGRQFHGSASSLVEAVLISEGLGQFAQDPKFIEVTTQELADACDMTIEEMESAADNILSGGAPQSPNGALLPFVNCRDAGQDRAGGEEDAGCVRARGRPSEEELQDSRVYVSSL
T2 sequence (Q08289 whole entry partner): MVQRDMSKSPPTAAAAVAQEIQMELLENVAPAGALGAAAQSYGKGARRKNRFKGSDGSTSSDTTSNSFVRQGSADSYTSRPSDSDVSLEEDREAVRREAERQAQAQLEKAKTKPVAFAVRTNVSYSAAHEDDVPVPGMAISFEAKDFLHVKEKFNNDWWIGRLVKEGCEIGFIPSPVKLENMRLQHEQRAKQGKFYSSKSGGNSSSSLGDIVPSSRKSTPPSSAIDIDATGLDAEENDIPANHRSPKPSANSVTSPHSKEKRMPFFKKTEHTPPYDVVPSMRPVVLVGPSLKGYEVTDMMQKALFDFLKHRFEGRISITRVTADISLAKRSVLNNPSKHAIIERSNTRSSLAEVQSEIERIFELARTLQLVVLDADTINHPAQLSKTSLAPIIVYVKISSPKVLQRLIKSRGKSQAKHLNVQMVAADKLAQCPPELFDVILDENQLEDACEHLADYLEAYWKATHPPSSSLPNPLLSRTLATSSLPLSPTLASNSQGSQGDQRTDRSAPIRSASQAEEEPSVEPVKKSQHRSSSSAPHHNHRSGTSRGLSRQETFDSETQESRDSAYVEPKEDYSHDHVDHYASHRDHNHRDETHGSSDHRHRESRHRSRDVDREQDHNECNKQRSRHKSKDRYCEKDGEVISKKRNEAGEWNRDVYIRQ
In words: L-type calcium channel patch clamp screening assay (ICaL, HEK293). The format is cell-based. Conditions: hCav1.2 in HEK293, percentage of current inhibited at steady state; for ICaL Patch Clamp Assay 1 μM % blk: 1 μM test compound; for ICaL Patch Clamp Assay 10 μM % blk: 10 μM test compound. The procedure: Compounds are screened to test for block of human cardiac L-type calcium channels (hCav1.2, encoded by the human CACNA1C gene and coexpressed with the beta 2 subunit, encoded by the human CACNB2 gene) expressed in an HEK293 cell line. Stable transfectants were selected using antibiotic resistance genes incorporated into the expression plasmids and selection pressure is maintained with selection antibiotics added to the culture medium. Cells are cultured using standard tissue culture methods for HEK293 cells.
Cells are harvested for addition to a PatchXpress automated patch clamp system. The external solution contains: 137 mM NaCl; 4 mM KCl; 1.8 mM CaCl2; 1 mM MgCl2; […]; 10 mM Glucose (pH adjusted to 7.4 with NaOH). The internal solution contains: 130 mM Cs Aspartate; 5 mM MgCl2; 5 mM EGTA; 4 mM ATP; 0.1 mM GTP; 10 mM HEPES (pH adjusted to 7.2 with N-methyl-D-glucamine).
Onset of block and steady state block of hCav1.2 channels are monitored using a stimulus voltage pattern consisting of a depolarizing test pulse (duration, 200 ms; amplitude, 10 mV) at 10s intervals from a −80 mV holding potential (FIG. 5). Test compound concentrations (1 μM and 10 μM) are applied cumulatively in ascending order without washout between applications. Peak current is measured during the step to 10 mV. A saturating concentration of nifedipine (10 μM) is added at the end of each experiment to completely block hCav1.2 current and verify sensitivity to channel blockade. Leakage current is measured after nifedipine addition and digitally subtracted from the total membrane current record. Each compound is applied to naive cells and each concentration is applied four times for a total exposure duration of five (5) minutes per concentration.
Test compound stock solutions are prepared in dimethyl sulfoxide (DMSO) and stored frozen. Test compound concentrations are prepared fresh daily by diluting stock solutions into the external HEPES-buffered physiological saline solution described above. […] Each test compound formulation is sonicated (Model 2510/5510, Branson Ultrasonics, Danbury, Conn.), at ambient room temperature for at least 20 minutes to facilitate dissolution. In preparation for the recording session, a glass-lined 96-well compound plate is loaded with the appropriate amounts of test and control solutions, and placed in the plate well of PatchXpress® (Model 7000A, MDS Analytical Technologies, Sunnyvale, Calif.).
Data acquisition and analyses are performed using conventional software. Steady state is defined by the limiting constant rate of change with time (linear time dependence). The steady state before and after test compound application is used to calculate the percentage of current inhibited at each concentration.

Setting [6] is: tonic block, read-out: Tonic Peak INa % blk.
The mark [7] stands for this setting: use-dependent block, read-out: UDB Peak INa % blk.

T1 sequence (Q14524 whole entry): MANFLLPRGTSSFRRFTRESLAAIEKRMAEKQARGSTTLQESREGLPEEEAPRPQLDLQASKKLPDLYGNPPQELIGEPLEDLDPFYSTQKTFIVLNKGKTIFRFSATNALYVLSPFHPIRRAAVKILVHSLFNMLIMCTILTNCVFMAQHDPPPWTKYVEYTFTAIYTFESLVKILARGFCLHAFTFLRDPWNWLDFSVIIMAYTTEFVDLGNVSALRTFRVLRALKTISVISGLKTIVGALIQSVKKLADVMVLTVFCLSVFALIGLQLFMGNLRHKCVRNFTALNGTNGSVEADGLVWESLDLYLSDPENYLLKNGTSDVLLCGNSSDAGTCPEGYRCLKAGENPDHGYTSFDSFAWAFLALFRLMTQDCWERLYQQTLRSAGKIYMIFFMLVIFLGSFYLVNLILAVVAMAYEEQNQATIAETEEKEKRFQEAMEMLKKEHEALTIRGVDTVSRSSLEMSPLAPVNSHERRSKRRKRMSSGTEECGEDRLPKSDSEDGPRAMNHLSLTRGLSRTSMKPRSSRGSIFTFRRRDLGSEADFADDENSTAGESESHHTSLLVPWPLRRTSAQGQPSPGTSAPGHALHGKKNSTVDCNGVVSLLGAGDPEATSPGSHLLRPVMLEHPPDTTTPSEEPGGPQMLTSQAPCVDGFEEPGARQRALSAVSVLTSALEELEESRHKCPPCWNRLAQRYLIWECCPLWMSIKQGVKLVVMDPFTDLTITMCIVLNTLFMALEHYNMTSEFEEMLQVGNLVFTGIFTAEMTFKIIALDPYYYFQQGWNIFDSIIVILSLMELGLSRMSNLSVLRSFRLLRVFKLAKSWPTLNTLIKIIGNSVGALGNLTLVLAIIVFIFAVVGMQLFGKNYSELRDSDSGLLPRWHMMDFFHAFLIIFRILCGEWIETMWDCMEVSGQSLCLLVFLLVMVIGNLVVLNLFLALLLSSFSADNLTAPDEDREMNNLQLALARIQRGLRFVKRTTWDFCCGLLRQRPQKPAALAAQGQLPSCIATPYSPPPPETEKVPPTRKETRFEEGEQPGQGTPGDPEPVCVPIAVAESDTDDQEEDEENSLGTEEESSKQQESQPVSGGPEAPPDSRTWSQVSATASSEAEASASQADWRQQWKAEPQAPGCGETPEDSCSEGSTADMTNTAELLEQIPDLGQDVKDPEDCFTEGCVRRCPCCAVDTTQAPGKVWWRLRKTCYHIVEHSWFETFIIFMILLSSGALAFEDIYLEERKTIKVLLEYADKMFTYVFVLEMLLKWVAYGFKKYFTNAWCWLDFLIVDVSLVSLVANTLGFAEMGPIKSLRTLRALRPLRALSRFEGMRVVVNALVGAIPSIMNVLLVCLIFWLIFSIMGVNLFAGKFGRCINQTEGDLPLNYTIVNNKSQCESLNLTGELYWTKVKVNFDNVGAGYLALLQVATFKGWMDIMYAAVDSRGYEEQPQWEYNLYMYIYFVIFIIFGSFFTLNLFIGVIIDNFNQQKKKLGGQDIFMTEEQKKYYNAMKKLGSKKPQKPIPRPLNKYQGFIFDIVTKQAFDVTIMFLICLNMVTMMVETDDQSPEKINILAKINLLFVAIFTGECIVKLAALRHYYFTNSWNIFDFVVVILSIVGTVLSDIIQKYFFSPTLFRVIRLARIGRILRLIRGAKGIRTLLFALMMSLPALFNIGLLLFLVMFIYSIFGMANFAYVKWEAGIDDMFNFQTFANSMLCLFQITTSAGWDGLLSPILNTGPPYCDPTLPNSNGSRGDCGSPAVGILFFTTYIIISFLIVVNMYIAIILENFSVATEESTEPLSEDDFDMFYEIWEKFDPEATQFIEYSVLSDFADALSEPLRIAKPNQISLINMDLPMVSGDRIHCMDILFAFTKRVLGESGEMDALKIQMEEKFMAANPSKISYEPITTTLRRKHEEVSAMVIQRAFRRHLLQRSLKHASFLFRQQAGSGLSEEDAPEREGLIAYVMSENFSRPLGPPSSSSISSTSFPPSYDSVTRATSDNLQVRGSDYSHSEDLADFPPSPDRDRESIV

Consider `CC1=C(C(=O)O[C@H](C)c2ccccc2)C(c2cccc3ccccc23)n2nnnc2N1` (stereo partly drawn) [PT-047], for which the “Late INa % blk” value in data set [1] was found to be 67.4%. For the same compound, the “CaL Plate Assay % blk (1 μM test cmpd)” value in data set [2] (1 μM test cmpd) stood at 24%. Moreover, in data set [2] (10 μM test cmpd), the “CaL Plate Assay % blk (10 μM test cmpd)” value is given as 42%. The “Tonic Peak INa % blk” value in data set [3] (tonic block) stood at 36.3%.

`CC1=C(C(=O)OCc2ccccc2)[C@@H](c2ccccc2-c2ccc(C)o2)n2nnnc2N1` [PT-235, (R)-benzyl 5-methyl-7-(2-(5-methylfuran-2-yl)phenyl)-4,7-dihydrotetrazolo[1,5-a]pyrimidine-6-carboxylate]: in data set [4], the “hERG Patch Clamp hERG % blk (1 μM test cmpd)” value is given as 10% and the “hERG Patch Clamp hERG % blk (10 μM test cmpd)” value is listed as 41.5%. Also, the inhibition at 10 µM in data set [3] (setting [6]) was found to be 8.8%. In addition, in data set [3] (setting [7]), the inhibition at 10 µM amounted to 4.5%.

Consider `CC1=C(C(=O)OCc2ccccc2)C(c2ccccc2-c2ccc(NS(C)(=O)=O)cc2)c2cn[nH]c2N1` (stereo not drawn) [PT-366, benzyl 6-methyl-4-(4′-(methylsulfonamido)biphenyl-2-yl)-4,7-dihydro-1H-pyrazolo[3,4-b]pyridine-5-carboxylate], for which, in data set [4], the “hERG Patch Clamp hERG % blk (1 μM test cmpd)” value came out at 28% and the “hERG Patch Clamp hERG % blk (10 μM test cmpd)” value amounted to 92%. Also, the inhibition at 10 µM in data set [3] (setting [6]) was 20%. For the same compound, in data set [3] (setting [7]), the inhibition at 10 µM turned out to be 4.6%.

In the case of `COc1ccc(C2C(C(=O)OCc3ccccc3)=C(C)Nc3nnnn32)c(C#N)c1` (stereo not drawn) [PT-389, benzyl 7-(2-cyano-4-methoxyphenyl)-5-methyl-4,7-dihydrotetrazolo[1,5-a]pyrimidine-6-carboxylate], in data set [4], the “hERG Patch Clamp hERG % blk (1 μM test cmpd)” value was determined as 23.5% and the “hERG Patch Clamp hERG % blk (10 μM test cmpd)” value amounted to 69%. The inhibition at 10 µM in data set [3] (setting [6]) came to 13.9%. Moreover, the inhibition at 10 µM in data set [3] (setting [7]) came out at 2.9%.

`CC1=C(C(=O)OCc2ccccc2)C(c2ccc(N(C)C)cc2[N+](=O)[O-])n2nnnc2N1` (stereo not drawn) [PT-409, benzyl 7-(4-(dimethylamino)-2-nitrophenyl)-5-methyl-4,7-dihydrotetrazolo[1,5-a]pyrimidine-6-carboxylate]: in data set [5], the “ICaL Patch Clamp Assay 1 μM % blk” value was found to be 2.7% and the “ICaL Patch Clamp Assay 10 μM % blk” value is given as 19.9%. In data set [4], the “hERG Patch Clamp hERG % blk (1 μM test cmpd)” value amounted to 27% and the “hERG Patch Clamp hERG % blk (10 μM test cmpd)” value is on record as 78.5%.

For the compound `CCOC(=O)C1=C(C)NC(C)=C(C(=O)OCC)C1c1ccc(OC)cc1C#N` [PT-431, diethyl 4-(2-cyano-4-methoxyphenyl)-2,6-dimethyl-1,4-dihydropyridine-3,5-dicarboxylate], in data set [5], the “ICaL Patch Clamp Assay 1 μM % blk” value is 3.7% and the “ICaL Patch Clamp Assay 10 μM % blk” value was found to be 2.4%.

As for `CCOC(=O)C1=C(C)NC(C)=C(C(=O)OCC)C1c1ccc(OC)cc1F` [PT-432, diethyl 4-(2-fluoro-4-methoxyphenyl)-2,6-dimethyl-1,4-dihydropyridine-3,5-dicarboxylate], in data set [5], the “ICaL Patch Clamp Assay 1 μM % blk” value came out at 3.7% and the “ICaL Patch Clamp Assay 10 μM % blk” value came to 35.3%.

As to `CCOC(=O)C1=C(C)NC(C)=C(C(=O)OCC)C1c1ccc(N(C)C)cc1[N+](=O)[O-]` [PT-437, diethyl 4-(4-(dimethylamino)-2-nitrophenyl)-2,6-dimethyl-1,4-dihydropyridine-3,5-dicarboxylate], in data set [5], the “ICaL Patch Clamp Assay 1 μM % blk” value is reported as −0.1% and the “ICaL Patch Clamp Assay 10 μM % blk” value is on record as 13.2%.

As to `CCOC(=O)C1=C(C)Nc2c(c(C)nn2C)C1c1cccc2ccccc12` (stereo not drawn) [PT-440, ethyl 1,3,6-trimethyl-4-(naphthalen-1-yl)-4,7-dihydro-1H-pyrazolo[3,4-b]pyridine-5-carboxylate], the “hERG Patch Clamp hERG % blk (1 μM test cmpd)” value in data set [4] was 12%. Moreover, the “hERG Patch Clamp hERG % blk (10 μM test cmpd)” value in data set [4] stood at 48%. Moreover, the inhibition at 10 µM in data set [3] (setting [6]) stood at 2.8%; in data set [3] (setting [7]), 4.3%.

As to `CC1=C(C(=O)O[C@@H](C)c2ccccc2)C(c2sc3ccccc3c2C)c2cn[nH]c2N1` (stereo partly drawn) [PT-523], in data set [1], the “Late INa % blk” value is reported as 66.7%. In data set [3] (tonic block), the “Tonic Peak INa % blk” value is given as 20.8%. Moreover, the “UDB Peak INa % blk” value in data set [3] (use-dependent block) came to 16.2%.
